The source of these data is ChEMBL document CHEMBL3046542, “Synthesis of some new 3,4-dihydro-2H-1,3-benzoxazines under microwave irradiation in solvent-free conditions and their biological activity” (Med Chem Res, 2011).

Molecules are shown by their SMILES.

Data set [1] relates to Rattus norvegicus. Description: Anti-inflammatory activity in Rattus norvegicus Wistar (rat) assessed as inhibition of carrageenan-induced paw edema at dose molecularly equivalent to 20 mg/kg of ibuprofen administered as po after 3 hr relative to ibuprofen. In kind it is functional.
Another data set has as its system Mus musculus. The experiment in a line: Analgesic activity in Mus musculus Swiss albino (mouse) assessed as protection against acetic acid-induced writhing effect at 20 mg/kg, po after 3 hr relative to control. It counts as functional.
For data set [2], the system named is Rattus norvegicus. The experiment in a line: Gastrointestinal toxicity in Rattus norvegicus Wistar (rat) assessed as ulcer index at dose molecularly equivalent to 60 mg/kg of ibuprofen administered as po. In kind it is organism-based. More on the design: dose 60 mg/kg, route oral. As to conditions: in vivo.
The subject of data set [3] is Rattus norvegicus. Description: Gastrointestinal toxicity in Rattus norvegicus Wistar (rat) assessed as ulcer index at 60 mg/kg, po. Set-up: dose 60 mg/kg, route oral. The following applies: in vivo. In kind it is organism-based.
In data set [4] the test system is Rattus norvegicus. The experiment in a line: Anti-inflammatory activity in Rattus norvegicus Wistar (rat) assessed as inhibition of carrageenan-induced paw edema at 20 mg/kg, po after 3 hr relative to control. It counts as functional.

With `COc1cc(/C=C/C(=O)c2ccc3c(c2)CN(c2ccc(C)cc2)CO3)cc(OC)c1OC`, the inhibition in vivo in the data set with Rattus norvegicus [1] is 56.5%. The same measure, in the same setting: with `Cc1ccc(N2COc3ccc(C(=O)/C=C/c4ccc(Cl)cc4)cc3C2)cc1` the figure was 63.4%.

Consider `Cc1ccc(N2COc3ccc(C(=O)/C=C/c4ccc(Cl)cc4Cl)cc3C2)cc1`, for which the inhibition in vivo with Rattus norvegicus [1] is 71.9%. In addition, the Activity in the data set on Mus musculus amounted to 55.47%. Besides, in the data set with Rattus norvegicus [2], the UI turned out to be 0.17. For `COc1ccc(N2COc3ccc(C(=O)/C=C/c4ccccc4Cl)cc3C2)cc1`, the inhibition in vivo in the data set with Rattus norvegicus [1] amounted to 63.4%. The same measure, in the same setting: with `COc1ccc(/C=C/C(=O)c2ccc3c(c2)CN(c2ccc(OC)cc2)CO3)cc1` the figure was 61.2%; with `COc1ccc(N2COc3ccc(C(=O)/C=C/c4ccccc4O)cc3C2)cc1`, 55.7%.

Take `COc1ccc(N2COc3ccc(C(=O)/C=C/c4cc(OC)c(OC)c(OC)c4)cc3C2)cc1`: in the data set on Rattus norvegicus [1], the inhibition in vivo worked out at 62.2%. For `COc1ccc(N2COc3ccc(C(=O)/C=C/c4ccc(Cl)cc4)cc3C2)cc1`, the inhibition in vivo in the data set with Rattus norvegicus [1] worked out at 67.4%. Besides, the Activity with Mus musculus is listed as 52.22%. For the same molecule, the UI with Rattus norvegicus [2] was found to be 0.25. Regarding `COc1ccc(N2COc3ccc(C(=O)/C=C/c4ccc(Cl)cc4Cl)cc3C2)cc1`, the inhibition in vivo in the data set on Rattus norvegicus [1] stood at 74.9%. For the same molecule, the Activity with Mus musculus amounted to 57.38%. For the same molecule, the UI in the data set on Rattus norvegicus [2] was found to be 0.08.

Take `Cc1ccc(N2COc3ccc(C(=O)/C=C/c4ccccc4Cl)cc3C2)cc1`: the inhibition in vivo in the data set on Rattus norvegicus [1] amounted to 60.4%. `COc1ccc(/C=C/C(=O)c2ccc3c(c2)CN(c2ccc(C)cc2)CO3)cc1`: the inhibition in vivo in the data set on Rattus norvegicus [1] was 70.4%. For the same molecule, the Activity in the data set on Mus musculus was determined as 54.27%. Moreover, the UI in the data set with Rattus norvegicus [2] worked out at 0.17.

For the molecule `Cc1ccc(N2COc3ccc(C(=O)/C=C/c4ccccc4O)cc3C2)cc1`, the inhibition in vivo in the data set with Rattus norvegicus [1] stood at 51%. Take `CC(C)Cc1ccc(C(C)C(=O)O)cc1` (stereo not drawn) [IBUPROFEN]: the UI with Rattus norvegicus [3] is recorded as 1. For the same molecule, the Activity in the data set on Mus musculus turned out to be 63.06%. Moreover, in the data set with Rattus norvegicus [4], the inhibition in vivo at 20 mg/kg came out at 82.3%.
